Measurements published in the supplement of paper PMC10307832.

Assays:
Assay in all cases: relative viability (nuclei count vs DMSO), 5 days (fraction); higher = more cells survive
[1] = compound: CC(C)N(CCCNC(=O)Nc1ccc(C(C)(C)C)cc1)C[C@H]1O[C@@H](n2ccc3c(N)ncnc32)[C@H](O)[C@@H]1O + N=C(N)NC(=N)NCCc1ccccc1 [Phenformin] (partner 250 µM)
Method in brief: (§1)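 Lung cancer cell lines were seeded in 1536-well plates and dosed by pin tool the next day, with either a single drug or a fixed anchor-drug dose combined with five library-drug doses (not always all listed) spaced in √10 steps. Five days later, one step fixed the cells and stained their nuclei (final 0.05% Triton X-100, 1% formaldehyde, 1 ug/ml Hoechst), and nuclei were counted on 4× images. Relative viability is the nuclei count in treated wells divided by the count in vehicle wells, and each value is the median of duplicate plates.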

Shikonin + Dasatinib = compound: CC(C)=CC[C@@H](O)C1=CC(=O)c2c(O)ccc(O)c2C1=O [Shikonin] + Cc1nc(Nc2ncc(C(=O)Nc3c(C)cccc3Cl)s2)cc(N2CCN(CCO)CC2)n1 [Dasatinib] (partner 0.075 µM)
Method in brief: as §1

[2] = compound: CC(C)N(CCCNC(=O)Nc1ccc(C(C)(C)C)cc1)C[C@H]1O[C@@H](n2ccc3c(N)ncnc32)[C@H](O)[C@@H]1O + COc1cc2c(Oc3ccc(NC(=O)C4(C(=O)Nc5ccc(F)cc5)CC4)cc3F)ccnc2cc1OCCCN1CCOCC1 [Foretinib] (partner 0.25 µM)
Method in brief: as §1

Shikonin + Alpelisib = compound: CC(C)=CC[C@@H](O)C1=CC(=O)c2c(O)ccc(O)c2C1=O [Shikonin] + Cc1nc(NC(=O)N2CCC[C@H]2C(N)=O)sc1-c1ccnc(C(C)(C)C(F)(F)F)c1 [Alpelisib] (partner 2 µM)
Method in brief: as §1

| Cell Line | relative viability ([1]; first compound 0.08 µM) | relative viability ([1]; first compound 0.253 µM) | relative viability ([1]; first compound 2.53 µM) | relative viability ([1]; first compound 8 µM) | relative viability (Shikonin + Dasatinib; first compound 0.01 µM) | relative viability (Shikonin + Dasatinib; first compound 0.1 µM) | relative viability (Shikonin + Dasatinib; first compound 0.3162 µM) | relative viability (Shikonin + Dasatinib; first compound 1 µM) | relative viability ([2]; first compound 0.08 µM) | relative viability ([2]; first compound 0.253 µM) | relative viability ([2]; first compound 2.53 µM) | relative viability ([2]; first compound 8 µM) | relative viability (Shikonin + Alpelisib; first compound 0.01 µM) | relative viability (Shikonin + Alpelisib; first compound 0.1 µM) | relative viability (Shikonin + Alpelisib; first compound 0.3162 µM) | relative viability (Shikonin + Alpelisib; first compound 1 µM) | relative viability ([1]; first compound 0.8 µM) | relative viability ([2]; first compound 0.8 µM) |
| --- | --- | --- | --- | --- | --- | --- | --- | --- | --- | --- | --- | --- | --- | --- | --- | --- | --- | --- |
| HCC-827 | 0.393 | 0.383 | 0.417 | 0.417 | 0.266 | 0.357 | 0.316 | 0.344 | 0.907 | 1.07 | 0.989 | 0.91 | 0.996 | 1.11 | 0.994 | 0.812 |  |  |
| HOP-62 | 0.704 | 0.69 | 0.566 | 0.545 | 0.66 | 0.593 | 0.701 | 0.747 | 0.974 | 1.23 | 1.06 | 0.945 | 1.11 | 1.37 | 1.2 | 0.707 | 0.638 | 1.02 |
| IA-LM |  |  |  |  |  |  |  |  | 1.01 | 1.28 | 1.2 | 0.99 | 0.862 | 0.667 | 0.637 | 0.69 |  | 1.14 |
| LC-2-ad | 0.587 | 0.546 | 0.6 | 0.565 | 0.528 | 0.586 | 0.418 | 0.893 | 0.895 | 0.9 | 0.899 | 0.9 | 0.921 | 0.944 | 0.925 | 0.912 | 0.526 | 0.894 |
| LCLC-97TM1 | 0.424 | 0.487 | 0.373 | 0.43 | 0.877 | 0.848 | 1.09 | 0.815 | 0.927 | 0.821 | 0.999 | 0.868 | 0.246 | 0.238 | 0.25 | 0.292 | 0.548 | 1.02 |
| LCLC-103H | 0.326 | 0.342 | 0.261 | 0.304 | 0.499 | 0.462 | 0.549 | 0.586 | 0.704 | 0.744 | 0.627 | 0.71 | 0.984 | 0.994 | 0.896 | 0.978 | 0.304 | 0.717 |
| LK-2 | 0.433 | 0.326 | 0.562 | 0.411 | 0.273 | 0.258 | 0.228 | 0.267 | 1.36 | 0.816 | 1.2 | 1.44 | 1.04 | 1.54 | 1.11 | 1.04 | 0.433 | 1.36 |
| LOU-NH91 | 0.685 | 0.712 | 0.65 | 0.671 | 0.551 | 0.551 | 0.639 | 0.584 | 0.858 | 0.946 | 0.958 | 0.924 | 0.703 | 0.73 | 0.839 | 0.727 | 0.441 | 0.571 |
| LU99A | 0.793 | 0.679 | 0.85 | 0.787 | 0.52 | 0.756 | 0.594 | 0.663 | 0.795 | 0.782 | 0.767 | 0.749 | 0.592 | 0.671 | 0.576 | 0.441 | 0.979 | 0.78 |
| LXF-289 | 0.518 | 0.556 | 0.539 | 0.478 | 0.213 | 0.214 | 0.231 | 0.229 | 0.96 | 1.03 | 1.01 | 0.94 | 1.12 | 0.963 | 1.02 | 1.03 | 0.541 | 0.94 |
| NCI-H23 | 0.771 | 0.806 | 0.843 | 0.746 | 0.643 | 0.883 | 0.78 | 0.944 | 0.891 | 0.964 | 0.937 | 0.945 | 0.76 | 0.65 | 0.804 | 0.659 | 0.791 | 1.02 |
| NCI-H322M | 0.795 | 0.711 | 0.749 | 0.762 | 0.237 | 0.271 | 0.261 | 0.27 | 0.904 | 0.894 | 1.02 | 1.06 | 0.73 | 0.77 | 0.856 | 0.857 | 0.75 | 0.94 |
| NCI-H358 | 0.291 | 0.303 | 0.286 | 0.273 | 0.145 | 0.189 | 0.148 | 0.157 | 0.548 | 0.63 | 0.662 | 0.58 | 0.825 | 0.807 | 0.924 | 0.707 | 0.383 | 0.67 |
| NCI-H522 | 0.606 | 0.673 | 0.664 | 0.56 | 0.901 | 0.852 | 1.04 | 1.16 |  |  |  |  |  |  |  |  | 0.677 |  |
| NCI-H1299 |  |  |  |  |  |  |  |  | 1.05 | 1.08 | 1.1 | 1.01 | 1.11 | 1.06 | 1.04 | 1.07 |  | 1.08 |
| NCI-H1623 | 0.547 | 0.666 | 0.607 | 0.565 | 0.475 | 0.541 | 0.569 | 0.635 | 0.836 | 0.952 | 0.83 | 0.801 |  |  |  |  | 0.597 | 0.795 |
| NCI-H1650 | 0.311 | 0.424 | 0.429 | 0.473 | 0.299 | 0.336 | 0.267 | 0.21 | 1.12 | 0.939 | 1.32 | 0.987 |  |  |  |  |  |  |
| NCI-H1703 |  |  |  |  |  |  |  |  | 0.294 | 0.33 | 0.403 | 0.401 | 0.317 | 0.277 | 0.287 | 0.244 |  |  |
| NCI-H1792 | 0.374 |  | 0.418 | 0.472 | 0.91 | 0.6 | 0.934 | 1.01 |  |  |  |  | 0.776 | 0.557 | 0.786 | 0.727 | 0.223 |  |
| NCI-H2342 | 0.574 | 0.553 | 0.532 | 0.493 | 0.334 | 0.314 | 0.295 | 0.325 | 0.931 | 0.9 | 1.21 | 1 |  |  |  |  | 0.499 | 0.9 |
| SW 900 | 0.719 | 0.634 | 0.541 | 0.486 | 0.5 | 0.592 | 0.545 | 0.634 | 0.737 | 0.893 | 1.09 | 0.952 |  |  |  |  |  |  |
